# Assay results published in publication doi:10.1101/2022.07.18.500363v1 (biorxiv, 2022).
# Where two headings read alike, the source gives them in different places.
# Biological target: PL^pro (papain-like protease, domain of nsp3) (Severe acute respiratory syndrome coronavirus 2, UniProt P0DTD1)
# Experiment: fluorogenic short peptide protease assay, 384-well
# Assay type: biochemical
SMILES,"IC50 (read-out: IC50PLpro, short peptide substrate, 37 °C, 10-60 min preincubation) [µM]",IC50 [µM]
"CC1=NN(c2ccc(C)c(C)c2)C(=O)/C1=N/Nc1cccc(-c2cccc(-c3nnn[nH]3)c2)c1O [DDL-713, thrombopoietin receptor agonist-1]",~54,
"CC1=NN(c2ccc(C)c(C)c2)C(=O)C1=NNc1cccc(-c2cccc(C(=O)O)c2)c1O [DDL-701, eltrombopag]",,13
"COc1cc(C(=O)NS(=O)(=O)c2ccccc2C)ccc1Cc1cn(C)c2ccc(NC(=O)OC3CCCC3)cc12 [DDL-715, zafirlukast]",,~24
